Data set [1] concerns BCap37 cells. The data set can be described thus: photothermal therapy effect at the cellular level. It counts as cell-based, human. Particulars: 3 h incubation, 808 nm laser 5 min, 1 W/cm^2. As to the method: The endocytosis experiment was carried out with the indocyanine green complex formulations prepared in embodiments 1 and 2 of the present invention, and the free ICG was used as a control. The procedures were as follows:
The experiment was divided into ICG/SN38 group, ICG/PTX group and ICG group. The BCap37 cells on the stage of logarithmic phase were evenly seeded in a 12-well plate at 1×10^5 cells/well. After 24 hours of incubation, the incubation medium was discarded, and the above formulations in 1 mL culture medium were added to the plate, respectively. After 3 hours of incubation, the incubation medium was discarded, and 1 mL of PBS was added. The three wells incubated with different formulations were then irradiated with 808 nm laser for 5 min (1 W/cm^2), and were photographed in real time by an infrared thermal camera, and the graphs of the temperature changes of each group were recorded.

The test system of data set [2] is BCap37 human breast cancer cell line tumor. The data set can be described thus: tumor inhibition experiment in tumor-bearing nude mice, with and without irradiation. It counts as in vivo. As for the experimental part:
After the tumor size was grown to about 100 mm^3 (9 days after inoculation), the tumor-bearing nude mice were randomly divided into 7 groups, 5 in each group. One group was injected with PBS as blank control, and the other six administration groups were categorized as the ICG small molecule group without irradiation, ICG small molecule group plus irradiation, ICG/SN38 nanoparticle group, ICG/SN38 nanoparticle group plus irradiation, ICG/PTX aqueous solution group, and ICG/PTX aqueous solution group plus irradiation, respectively. The mice were injected via the tail vein at a dose of calculated ICG concentration at 10 mg/kg, and were administered once every other day for 2 times. The tumor size was recorded until the end of the experiment. The therapeutic effect was evaluated by comparing the treatment group with the control group. The tumor inhibition rate (IR) was calculated by the following formula: IR=100%×(mean tumor weight of the control group−mean tumor weight of the experimental group)/mean tumor weight of the control group.
FIG. 15 was the results of tumor inhibition after irradiation treatment. The ICG group was administered twice, and the ICG/SN38 nanoparticle group was administered once. Irradiation was carried out 4 hours after administration (808 nm laser, intensity 1 W/cm^2, irradiation for 2 minutes). […]

The test system of data set [3] is BCap37 cells. The data set can be described thus: MTT cytotoxicity test with and without irradiation. It counts as cell-based, human. As to the method:
FIG. 9 is a graph showing a cytotoxicity test of ICG and the complex formulation thereof on BCap37 cells. (I1S2 is a nanoparticle formed by ICG and SN38 with a molar ratio of 1:2; and I1P1 is an aqueous solution drug of the complex formed by ICG and Paclitaxel with a molar ratio of 1:1. The drugs were applied for 24 hours and then washed off, followed by incubation for 24 hours after irradiation and non-irradiation treatment, respectively.)
200 μL of cell suspension at the density of 4000 cells/well was uniformly added to a 96-well plate. After 24 hours of incubation, ICG, ICG/SN38 (I1S2) nanoparticles, ICG/PTX (I1P1) complex solution and ICG/CCM (I1C2) complex solution were added at different concentration points. Two identical plates were incubated in dark for 3 hours, and then culture medium was removed and washed three times with PBS, followed by addition of fresh medium. The irradiation group was further dark-incubated after 30 minutes of irradiation under a fluorescent lamp, and the other cell culture plate was dark-incubated all long as a light-proof control group. After 48 hours of incubation, culture plates were centrifuged at 900 rpm, and culture medium was carefully removed. The plates were added the medium containing 0.75 mg/mL MIT dark-incubated for 3 hours, centrifuged at 3500 rpm. After carefully removing the culture solution, the plates were added 100 μL of DMSO to each well, and shaked for 5 minutes to completely dissolve the purple solids. The absorbance (OD) value was recorded on a microplate reader. The test of each drug concentration point was repeated 3 times.

Data set [4] can be described thus: plasma clearance test on mice. Format: in vivo. As for the experimental part: To determine the appropriate drug ratio of ICG/SN38 nanoparticles for animal experiments, a series of ICG/SN38 nanoparticles: I2S1, I1S1, I1S2, I1S5 and I1S10 were prepared, and the average particle size thereof was 130 nm, 55 nm, 36 nm, 30 nm and 26 nm, respectively. The plasma clearance rate of the nanoparticles was measured based on the content of SN38 (10 mg/kg).
In addition, the plasma clearance rates of small molecule ICG, ICG/PTX solutions, and ICG/SN38 nanoparticles were compared.

For another data set, the system named is cells. The data set can be described thus: cellular uptake by laser confocal microscopy. Particulars: 2 hours after drug applied. It counts as cell-based. As for the experimental part:
In order to judge the rate of cellular uptake of drug from the nano formulation, as well as the therapeutic effect of the drug, the laser confocal microscopy microscope was used to observe the distribution of the drug in the cells 2 hours after drug applied. […] Therefore, the largest amount of ICG could enter into the cell to exert best therapeutic effect in the nano drug-loading system.

Data set [5] concerns BCap37 human breast cancer cell line tumor. The data set can be described thus: in vivo fluorescence imaging in tumor-bearing nude mice. To be noted: 3 hours after administration, FIG. 13. From the text:
Therefore, these two nanoparticle formulations were further selected for in vivo fluorescence imaging in tumor-bearing nude mice, in comparison with small molecule ICG. The tumor was located 2 cm below the right armpit of the mouse, derived from BCap37 human breast cancer cell line.

This is an account of results in US11331387B2, “Self-assembled drug-loading system and preparation method therefor” (SHANGHAI SELECTION BIOSCIENCE LLC., priority 2016, dated 2022).

What is called IC50 is the point on the concentration scale where inhibition reaches its midpoint. A low value points to inhibition by little substance. As to `CC1(C)C(/C=C/C=C/C=C/C=C2\N(CCCCS(=O)(=O)[O-])c3ccc4ccccc4c3C2(C)C)=[N+](CCCCS(=O)(=O)[O-])c2ccc3ccccc3c21.[Na+]` [ICG, indocyanine green], the cell temperature change entry in the data set on BCap37 cells [1] is “no significant temperature changes”. Further, the anti-tumor effect result in data set [2] (irradiation 4 hours after administration, 808 nm, 1 W/cm^2, 2 minutes) is “residual tumors were still present and recurred rapidly after the end of treatment”; in data set [2] (non-irradiation, ICG 10 mg/kg tail vein, every other day for 2 times), “no anti-tumor effect at all”. Further, the IC50 with BCap37 cells [3] (Homo sapiens, Bcap37, light or radiation study, with light irradiation) was approximately 13.5 µM. For the same compound, the cell death entry with BCap37 cells [3] (ICG 20 μM, after irradiation) is reported as “death of all the cells”. In addition, in the data set with BCap37 cells [3] (in the absence of light), the “toxicity to the cells” value was “not toxic”. Moreover, the ICG in plasma result in data set [4] (after 1 hour) is “nearly not detectable”. For the same compound, in data set [4] (mice, FIG. 11), the plasma clearance entry is recorded as “extremely fast”. The concentration at 3 min in data set [4] (mouse, plasma, other: injection (site not specified), three minutes after injecting) is less than 1000 ng/mL. Further, the “cellular uptake / intracellular distribution” value in the data set with cells is reported as “difficult to enter the cell”. Further, the “in vivo distribution by fluorescence” value in data set [5] is listed as “the majority of ICG from the small molecule ICG group were cleared by the body”.
